Tests used:
Type in all cases: functional
[1] = tested on: MDA-MB-231; test: Cytotoxicity against human MDA-MB-231 cells by sulforhodamine B assay
[2] = tested on: NCI-H23; test: Cytotoxicity against human NCI-H23 cells by sulforhodamine B assay
[3] = tested on: 786-0; test: Cytotoxicity against human 786-0 cells by sulforhodamine B assay
[4] = tested on: A549; test: Cytotoxicity against human A549/ATCC cells by sulforhodamine B assay
[5] = tested on: HT-29; test: Cytotoxicity against human HT-29 cells by sulforhodamine B assay
[6] = tested on: HL-60(TB); test: Cytotoxicity against human HL-60(TB) cells by sulforhodamine B assay
[7] = tested on: T47D; test: Cytotoxicity against human T47D cells by sulforhodamine B assay
[8] = tested on: CAKI-1; test: Cytotoxicity against human CAKI-1 cells by sulforhodamine B assay
[9] = tested on: SW-620; test: Cytotoxicity against human SW620 cells by sulforhodamine B assay
[10] = tested on: IGROV-1; test: Cytotoxicity against human IGROV1 cells by sulforhodamine B assay
[11] = read-out: LC50 (the source's name)

## COc1ccc(C(=O)/C=C/c2ccc(/C=C/c3cc(OC)c(OC)c(OC)c3)cc2)cc1
[1]
  GI50: 10.2 µM
  TGI: > 100 µM
[1]; [11]
  CC50: > 100 µM
[2]
  GI50: 5.39 µM
  TGI: 65.9 µM
[2]; [11]
  CC50: > 100 µM
[3]
  GI50: 10.4 µM
  TGI: 71.1 µM
[3]; [11]
  CC50: > 100 µM
[4]
  GI50: 4.67 µM
  TGI: 80.9 µM
[4]; [11]
  CC50: > 100 µM
[5]
  GI50: 4.17 µM
  TGI: > 100 µM
[5]; [11]
  CC50: > 100 µM
[6]
  GI50: 4.49 µM
  TGI: > 100 µM
[6]; [11]
  CC50: > 100 µM
[7]
  GI50: 6.19 µM
  TGI: > 100 µM
[7]; [11]
  CC50: > 100 µM
[8]
  GI50: 14.6 µM
  TGI: > 100 µM
[8]; [11]
  CC50: > 100 µM
[9]
  GI50: 4.5 µM
  TGI: > 100 µM
[9]; [11]
  CC50: > 100 µM
[10]
  GI50: 9.24 µM
  TGI: 76.4 µM
[10]; [11]
  CC50: > 100 µM
